Values of other authors, collected in patent US20240139105A1, “PHARMACEUTICAL COMPOSITION CONTAINING GHRP-6” (CENTRO DE INGENIERÍA GENÉTICA Y BIOTECNOLOGÍA, priority 2021, published 2024).
Where no end group is shown, it is not given here. [ ]: non-standard residue; d: D form.

How the values were obtained:
[1] = tested on: humans; conditions: intravenous route
[2] = tested on: pigs; conditions: model of acute myocardial infarction in pigs
[3] = tested on: Mongolia gerbil (Meriones unguiculatus); conditions: model of ischemic cerebral infarction, in combination with EGF

For “His-Trp-Ala-Trp-Phe-Lys-NH2 (H[dW]AW[dF]K-NH2) [GHRP-6, synthetic peptide, growth hormone secretagogue; the API of all formulations]”, the “Doses referred as safe in humans” value [1] is given as at most 2 µg/kg, the Therapeutic dosage reported [2] is given as 400 µg/kg and the Therapeutic dosage reported [3] is given as “around 600 μg/kg”.
